According to patent US20240173353A1, “UNIVERSAL CHIMERIC ANTIGEN RECEPTOR T-CELL AND APPLICATION THEREOF” (SHANGHAI IASO BIOTECHNOLOGY CO., LTD., priority 2021, published 2024):
Where two headings read alike, the source gives them in different places.

Assays:
T cells [1] = experiment: T cell activation by anti-CD3/CD28 DynaBeads, CD25/CD69/4-1BB expression by flow cytometry
Description: The inventors pre-treated T cells with dasatinib or DMSO for 5 hr, then activated T cells with anti-CD3/CD28 DynaBeads for 24 hr, and then detected the expression of activation molecules CD25, CD69 and 4-1BB by flow cytometry.
In order to verify the tolerance of the LCK-T316I mutation to the function of dasatinib, the inventors carried out experimental verification on the T cells with LCK edited with different sgRNA lengths prepared in Example 2.
The inventors isolated CD3-positive T cells from human peripheral blood and divided them into eleven portions for processing, with 1e5 cells in each portion. One of these portions was not treated with dasatinib, anti-CD3/CD28 DynaBeads were not added to activate TCR, and this portion was as the initial control group; the other 10 portions of cells were pretreated with different concentrations of dasatinib for 4 hr, ten concentrations ranging from 0 nM to 50 nM were set, and then anti-CD3/CD28 DynaBeads were added to activate TCR signals overnight. On the second day, the expression of CD25, CD69 and 4-1BB activation signals was detected, and the activation of TCR signals was detected. Two replicates were set for each group of experiments.
The inventors divided each of the three groups of edited cells into 6 sub-groups and cultured them in a flat-bottomed 96-well plate. Each sub-group contained two technical replicates, and each well contained 0.15×10^6 cells. […] Subsequently, the cells were cultured for 18 hr. The activated T cell surface marker molecule 4-1BB was detected by using the APC-labeled murine IgG monoclonal antibody, and the activated T cell surface marker molecule CD25 was detected by using the PE-labeled murine IgG monoclonal antibody, and the activated T cell surface marker CD69 was detected by FITC-labeled murine IgG monoclonal antibody.
The inventors conducted research using two groups of T cells (CBE3 control group and Km edited group) in the above experiments. The experimental procedure is basically the same as the above-mentioned experiment (FIG. 32B). The two groups of edited cells were each divided into 7 sub-groups and cultured them in a flat-bottomed 96-well plate. Each sub-group contained two technical replicates, and each well contained 0.15×10^6 cells. […] Subsequently, the cells were cultured for 18 hr. The activated T cell surface marker molecule 4-1BB was detected by using the APC-labeled murine IgG monoclonal antibody, and the activated T cell surface marker molecule CD25 was detected by using the PE-labeled murine IgG monoclonal antibody, and the activated T cell surface marker CD69 was detected by FITC-labeled murine IgG monoclonal antibody.

anti-CD19-CAR-T cells = experiment: CD107a translocation of anti-CD19-CAR-T cells co-incubated with target cells; format: cell-based, human; details: LCK-sgRNA16 editing group (43% T316I), 100 nM dasatinib 12 hr, Nalm6 target cells
Description: First, the inventors edited the prepared anti-CD19 CAR-T by electroporation with the CBE3 protein, the RNP complex of CBE3 and LCK-sgRNA12, and the RNP complex of CBE3 and LCK-sgRNA16 respectively, to achieve three different editing treatments.

anti-BCMA CAR-T cells = experiment: Luciferase killing assay of anti-BCMA CAR-T on luciferase-positive target cells; details: CBE3 and CBE3+sg12 groups, 100 nM dasatinib 12 hr, effector-to-target 1:1, 24 hr
[2] = cited from earlier work
CD5-UCAR-T cells = details: reduced to 0 nM, Jurkat 4 hr
Protocol: Subsequently, they were treated overnight with dasatinib at a concentration of 50 nM or 25 nM, respectively. […] After 4 hr of co-incubation, CD107a release in CD8 and CAR double-positive cells was detected.
After 4 hr of co-incubation, CD107a release from CD8/CAR double-positive cells was detected.

anti-BCMA-CAR-T cells = experiment: CD107a translocation of anti-BCMA-CAR-T cells co-incubated with target cells; format: cell-based, human; details: LCK-sgRNA16 editing group (42% T316I), 100 nM dasatinib 12 hr
T cells [3] = experiment: UCAR-T preparation process with dasatinib added after editing; format: cell-based, human; details: experimental group, 100 nM DS added after editing
Protocol: The inventors isolated CD3-positive T cells from PBMCs from three different donors using PanT kits, knocked out the B2M and TRAC genes, and performed LCK-T316I editing on the cells. Then the cells were divided into two portions, to one portion, 100 nM DS was added (experimental group), and to the other portion, a corresponding amount of DMSO was added as a control (control group). After 2 hr, to the experimental group and the control group, T cell activators (CD2/CD3/CD28, 25 ul/1M/mL) were added. After 48 hr of activation, the cells were infected with the anti-CD19 CAR molecule through lentivirus infection, and the medium was replaced 24 hr after the virus infection, and DS or DMSO was removed at the same time.

[4] = test system: normal human T lymphocytes; details: in vitro; cited from earlier work
[5] = test system: CD19/BCMA bispecific CAR-T cells; experiment: CD107a translocation of CD19/BCMA bispecific CAR-T cells; format: cell-based, human; details: CAR-T cells with LCK-T316I mutation, 100 nM dasatinib 12 hr, U266B1 and Raji
Description: The inventors edited the prepared CD19/BCMA dual-target CAR-T by electroporation with the CBE3 protein, the RNP complexes (18 nt and 21 nt) of CBE3 and LCK-sgRNA12, and the RNP complexes (18 nt and 21 nt) of CBE3 and LCK-sgRNA16 respectively, to achieve three different groups of editing treatments. […] These target cells include U266B1 (BCMA positive), Raji (CD19 positive), K562 (negative control), allogeneic T cells (negative control) and blank Buffer control (negative control).

[6] = T cells, 20 nM dasatinib 4 hr, beads overnight
[7] = T cells, 25 nM dasatinib 4 hr, beads overnight
[8] = T cells, dasatinib increased to 50 nM, beads overnight

With `Cc1nc(Nc2ncc(C(=O)Nc3c(C)cccc3Cl)s2)cc(N2CCN(CCO)CC2)n1` [dasatinib] the “concentration that effectively inhibits T cell activation in vitro (minimum)” value (T cells [1]; T cells, 0-50 nM gradient) was 25 nM, the “percentage of CD25 and 4-1BB double-positive cells” value (T cells [1]; [6]) was 2.09% and the “percentage of CD25 and CD69 double-positive cells” value (T cells [1]; [6]) was 8.75%. For the same molecule, the “percentage of CD25 and CD69 double-positive cells” value (T cells [1]; [7]) was 1.06%, the “percentage of double-positive cells (FIG. 20B, CD25 and 4-1BB as indicators)” value (T cells [1]; [7]) was 0.26% and the “concentration sufficient to inhibit activation of TCR signaling” value (T cells [1]; T cells, 5 hr pretreatment, beads 24 hr) was 100 nM. For the same molecule, the “percentage of CD25 and CD69 double-positive cells” value (T cells [1]; [8]) was “below 1%”, the “percentage of double-positive cells (FIG. 20B, CD25 and 4-1BB as indicators)” value (T cells [1]; [8]) was “below 1%” and the “reduction of expression of activation molecules versus no dasatinib” value (T cells [1]; sgRNA16 group (about 50% edited), 100 nM dasatinib, anti-CD3/CD28 beads) was 20%-50%. The “positive CD107a translocation in CD8 and CAR double-positive cells” value (from here on “positive CD107a translocation”) (anti-CD19-CAR-T cells) was 50%, the “cytotoxicity of anti-BCMA CAR-T (luciferase value of RPMI-8226)” value (anti-BCMA CAR-T cells) was “significantly inhibited” and the half-life in vivo [2] was 3 to 4 h. For the same molecule, the “positive CD107a release” value (CD5-UCAR-T cells; CD5-CART, repeat, 50 nM pretreatment) was 12.1%, the “positive CD107a release” value (CD5-UCAR-T cells; sg12 control CD5-UCART, 50 nM pretreatment overnight) was 12% and the “positive CD107a release” value (CD5-UCAR-T cells; sg16 (LCK-T316I) CD5-UCART, 50 nM pretreatment) was 16%. For the same molecule, the “positive CD107a translocation” value (anti-BCMA-CAR-T cells; RPMI-8226) was 44.7%, the “positive CD107a translocation” value (anti-BCMA-CAR-T cells; U266B1) was 39.6% and the “percentage of B2M and TRAC double knockout” value (T cells [3]) was “more than 50%”. The “viability of T cells” value [4] was “will not affect the viability of T cells” and the CD107a positive rate [5] was “above 50%”.
